Biological target: T1, hNav1.8 (Homo sapiens, UniProt Q9Y5Y9)
T1 construct: host or cells: HEK cells, stably transfected
Assay: hNav1.8 whole-cell patch-clamp electrophysiology (conventional or PatchXpress 7000) in stably transfected HEK cells
Type: cell-based
Conditions: estimated IC50 calculated from single point % inhibition; HEK cells expressing hNav1.8; 8 sec prepulse to V1/2, 20 msec step to 0 mV; average of replicates; read-out: Nav1.8 EIC50
Text: The ability of the benzimidazole derivatives of the formula (I) to inhibit the Nav1.8 channel may be measured using the assay described below.
HEK cells stably transfected with hNav1.8, purchased from Millipore (Millipore Corp., Billerica, Mass. 01821), were maintained according to manufacturer's instructions. For electrophysiological studies, cells were removed from the culture flask by brief trypsinization and re-plated at low density onto glass cover slips. Cells were typically used for electrophysiological experiments within 24 to 72 h after plating.
Cover slips containing HEK cells expressing hNav1.8 were placed in a bath on the stage of an inverted microscope and perfused (approximately 1 ml/min) with extracellular solution of the following composition: 138 mM NaCl, 2 mM CaCl2, 5.4 mM KCl, 1 mM MgCl2, 10 mM glucose, and 10 mM HEPES, pH 7.4, with NaOH. […] The osmolarity of the extracellular and intracellular solutions was 300 mOsm/kg and 295 mOsm/kg, respectively. All recordings were made at room temperature (22-24° C.) using AXOPATCH 200B amplifiers and PCLAMP software (Axon Instruments, Burlingame, Calif.).
hNav1.8 currents in HEK cells were measured using the whole-cell configuration of the patch-clamp technique (Hamill et al., 1981). Uncompensated series resistance was typically 2 to 5 mega ohms and >85% series resistance compensation was routinely achieved. As a result, voltage errors were negligible and no correction was applied. Current records were acquired at 20 to 50 KHz and filtered at 5 to 10 KHz.
HEK cells stably transfected with hNav1.8 were viewed under Hoffman contrast optics and placed in front of an array of flow pipes emitting either control or compound-containing extracellular solutions. All compounds were dissolved in dimethyl sulfoxide to make 10 mM stock solutions, which were then diluted into extracellular solution to attain the final concentrations desired.
The voltage-dependence of inactivation was determined by applying a series of depolarizing prepulses (8 sec long in 10 mV increments) from a negative holding potential. The voltage was then immediately stepped to 0 mV to assess the magnitude of the sodium current. Currents elicited at 0 mV were plotted as a function of prepulse potential to allow estimation of the voltage at which 50% of the channels were inactivated (midpoint of inactivation or V1/2). Compounds were tested for their ability to inhibit hNav1.8 sodium channels by activating the channel with a 20 msec voltage step to 0 mV following an 8 second conditioning prepulse to the empirically determined V1/2. Compound effect (% inhibition) was determined by difference in current amplitude before and after application of test compounds. For ease of comparison, “estimated IC50” values were calculated from single point electrophysiology data by the following equation, (tested concentration, uM)×(100-% inhibition/% inhibition). Inhibition values<20% and >80% were excluded from the calculation.
In some cases electrophysiological assays were conducted with PatchXpress 7000 hardware and associated software (Molecular Devices Corp). All assay buffers and solutions were identical to those used in conventional whole-cell voltage clamp experiments described above. hNav1.8 cells were grown as above to 50%-80% confluency and harvested by trypsinization. Trypsinized cells were washed and resuspended in extracellular buffer at a concentration of 1×10^6 cells/ml. The onboard liquid handling facility of the PatchXpress was used for dispensing cells and application of test compounds. Determination of the voltage midpoint of inactivation was as described for conventional whole-cell recordings. Cells were then voltage-clamped to the empirically determined V1/2 and current was activated by a 20 msec voltage step to 0 mV.
Estimated IC50 values for the compounds of formula (I) exemplified above are as follows. […]

T1 sequence (Q9Y5Y9 whole entry): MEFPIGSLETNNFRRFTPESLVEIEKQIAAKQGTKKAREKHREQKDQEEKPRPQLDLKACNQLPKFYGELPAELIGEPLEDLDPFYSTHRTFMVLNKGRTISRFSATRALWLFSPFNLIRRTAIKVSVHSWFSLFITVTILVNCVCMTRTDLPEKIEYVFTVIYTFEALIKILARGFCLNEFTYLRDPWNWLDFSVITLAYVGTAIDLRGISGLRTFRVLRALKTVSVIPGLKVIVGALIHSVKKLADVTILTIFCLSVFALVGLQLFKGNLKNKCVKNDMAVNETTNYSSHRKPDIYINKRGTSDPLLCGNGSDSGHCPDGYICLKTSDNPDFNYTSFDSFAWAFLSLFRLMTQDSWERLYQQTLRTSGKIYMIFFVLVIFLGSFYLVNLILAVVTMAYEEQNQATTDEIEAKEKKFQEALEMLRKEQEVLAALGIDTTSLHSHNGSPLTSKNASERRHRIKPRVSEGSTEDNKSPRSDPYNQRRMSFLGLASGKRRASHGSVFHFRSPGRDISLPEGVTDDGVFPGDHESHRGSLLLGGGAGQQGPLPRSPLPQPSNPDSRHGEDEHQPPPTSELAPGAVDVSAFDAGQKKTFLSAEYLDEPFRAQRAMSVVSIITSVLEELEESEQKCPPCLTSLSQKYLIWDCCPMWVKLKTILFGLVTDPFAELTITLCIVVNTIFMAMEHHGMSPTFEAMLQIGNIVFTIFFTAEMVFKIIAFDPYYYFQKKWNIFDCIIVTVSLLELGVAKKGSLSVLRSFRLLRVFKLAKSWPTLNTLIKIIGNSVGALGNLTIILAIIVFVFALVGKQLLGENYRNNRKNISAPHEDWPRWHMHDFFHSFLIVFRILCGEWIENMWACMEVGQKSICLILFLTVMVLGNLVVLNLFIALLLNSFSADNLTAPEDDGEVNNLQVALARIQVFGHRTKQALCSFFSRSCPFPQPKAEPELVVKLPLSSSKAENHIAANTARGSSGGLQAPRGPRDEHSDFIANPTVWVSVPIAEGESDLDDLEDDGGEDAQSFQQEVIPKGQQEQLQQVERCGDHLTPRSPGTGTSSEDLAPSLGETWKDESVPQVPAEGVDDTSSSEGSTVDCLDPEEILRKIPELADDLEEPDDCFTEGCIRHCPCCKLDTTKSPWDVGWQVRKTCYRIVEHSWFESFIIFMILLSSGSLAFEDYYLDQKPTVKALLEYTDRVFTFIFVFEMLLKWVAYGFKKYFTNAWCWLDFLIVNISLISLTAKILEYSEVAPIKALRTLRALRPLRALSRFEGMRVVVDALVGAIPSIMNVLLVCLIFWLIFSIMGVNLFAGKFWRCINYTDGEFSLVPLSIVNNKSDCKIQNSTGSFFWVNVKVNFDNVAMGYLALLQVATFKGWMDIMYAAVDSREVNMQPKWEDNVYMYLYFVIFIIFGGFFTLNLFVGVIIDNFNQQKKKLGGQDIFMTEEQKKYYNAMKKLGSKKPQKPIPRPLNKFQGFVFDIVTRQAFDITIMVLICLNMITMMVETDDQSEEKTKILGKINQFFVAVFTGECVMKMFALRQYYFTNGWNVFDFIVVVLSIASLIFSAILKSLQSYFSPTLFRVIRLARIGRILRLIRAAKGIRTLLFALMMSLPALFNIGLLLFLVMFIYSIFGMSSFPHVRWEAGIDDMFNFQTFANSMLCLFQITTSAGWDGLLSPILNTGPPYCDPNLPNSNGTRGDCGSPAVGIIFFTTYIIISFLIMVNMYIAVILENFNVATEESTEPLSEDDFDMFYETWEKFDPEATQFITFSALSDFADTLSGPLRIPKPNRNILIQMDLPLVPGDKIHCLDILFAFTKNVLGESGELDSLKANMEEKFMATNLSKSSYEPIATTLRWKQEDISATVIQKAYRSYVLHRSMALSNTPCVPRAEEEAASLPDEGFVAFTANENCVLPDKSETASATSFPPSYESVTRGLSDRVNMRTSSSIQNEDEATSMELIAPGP

Row | Compound | IC50
1 | CC(C)(C)c1ccc2[nH]c([C@H](N)CCCO)nc2c1 [Example 135, (4R)-4-Amino-4-(5-tert-butyl-1H-benzimidazol-2-yl)butan-1-ol] | 1 µM
2 | C[C@H](OC(N)=O)[C@H](N)c1nc2cc(C34CC5CC(CC(C5)C3)C4)ccc2[nH]1 [Example 151, (1R,2S)-1-(5-((3R,5R,7R)-Adamantan-1-yl)-1H-benzo[d]imidazol-2-yl)-1-aminopropan-2-yl carbamate] | 0.0452 µM
3 | CC(C)(C)c1ccc2[nH]c(C3(N)CCCC3)nc2c1 [Example 13, 1-(5-tert-Butyl-1H-benzimidazol-2-yl)cyclopentanamine] | 0.496 µM
4 | CC(C)(C)c1ccc2[nH]c([C@H](N)CCO)nc2c1 [Example 134, (3R)-3-Amino-3-(5-tert-butyl-1H-benzimidazol-2-yl)propan-1-ol] | 0.355 µM
5 | C[C@H](N)c1nc2cc(C(C)(C)C)ccc2[nH]1 [Example 7, (1S)-1-(5-tert-Butyl-1H-benzimidazol-2-yl)ethanamine] | 0.439 µM
6 | CC(C)(C)c1ccc2[nH]c([C@H](N)CC(N)=O)nc2c1 [Example 28, (3R)-3-Amino-3-(5-tert-butyl-1H-benzimidazol-2-yl)propanamide] | 0.13 µM
7 | C[C@@H](C(N)=O)[C@H](N)c1nc2c(Cl)c(-c3ccc(C#N)c(F)c3)ccc2[nH]1 [Example 110, (2R,3S)-3-Amino-3-[4-chloro-5-(4-cyano-3-fluorophenyl)-1H-benzimidazol-2-yl]-2-methylpropanamide] | 0.233 µM
8 | CC(C)(C)Cc1ccc2[nH]c(C(C)(N)CO)nc2c1 (stereo not shown) [Example 115, 2-Amino-2-[6-(2,2-dimethylpropyl)-1H-benzimidazol-2-yl]propan-1-ol] | 0.278 µM
9 | CO[C@@H](C)[C@H](N)c1nc2cc(C(C)(C)C)ccc2[nH]1 [Example 128, (1R,2S)-1-(5-tert-Butyl-1H-benzimidazol-2-yl)-2-methoxypropan-1-amine] | 0.368 µM
10 | CC(C)(C)c1ccc2[nH]c([C@](C)(N)CO)nc2c1 [Example 80, (2S)-2-Amino-2-(5-tert-butyl-1H-benzimidazol-2-yl)propan-1-ol] | 0.0876 µM
11 | CC(C)[C@@H](O)[C@H](N)c1nc2cc(C(C)(C)C)ccc2[nH]1 [Example 133, (1R,2R)-1-Amino-1-(5-tert-butyl-1H-benzimidazol-2-yl)-3-methylbutan-2-ol] | 0.228 µM
12 | CO[C@@H](C)[C@H](N)c1nc2cc(C(C)C)ccc2[nH]1 [Example 127, (1R,2S)-2-Methoxy-1-[5-(propan-2-yl)-1H-benzimidazol-2-yl]propan-1-amine] | 2.77 µM
13 | CC(C)(C)Cc1ccc2[nH]c([C@@H](N)CC(N)=O)nc2c1 [Example 118, (3S)-3-Amino-3-[5-(2,2-dimethylpropyl)-1H-benzimidazol-2-yl]propanamide] | 0.348 µM
14 | CO[C@@H](C)[C@@H](N)c1nc2cc(C(C)(C)C)ccc2[nH]1 [Example 94, (1S,2S)-1-(5-tert-Butyl-1H-benzimidazol-2-yl)-2-methoxypropan-1-amine] | 1.08 µM
15 | CCCc1ccc2[nH]c(C(C)(C)N)nc2c1 [Example 69, 2-(5-Propyl-1H-benzimidazol-2-yl)propan-2-amine] | 3.9 µM
16 | CC[C@@H](N)c1nc2cc(C(C)(C)C)ccc2[nH]1 [Example 97, (1R)-1-(5-tert-Butyl-1H-benzimidazol-2-yl)propan-1-amine] | 0.151 µM
17 | CO[C@H](C)[C@H](N)c1nc2cc(C(C)C)ccc2[nH]1 [Example 123, (1R,2R)-2-Methoxy-1-[5-(propan-2-yl)-1H-benzimidazol-2-yl]propan-1-amine] | 1.08 µM

Second part, the molecule after the results:

Row | IC50 | Compound
18 | 0.0278 µM | N#Cc1ccc(-c2ccc3[nH]c(C4(N)Cc5ccccc5C4)nc3c2)cc1F [Example 114, 4-[2-(2-Amino-2,3-dihydro-1H-inden-2-yl)-1H-benzimidazol-5-yl]-2-fluorobenzonitrile]
19 | 0.486 µM | C[C@H](O)[C@H](N)c1nc2cc(-c3ccc(C#N)cc3)ccc2[nH]1 [Example 138, 4-{2-[(1R,2S)-1-Amino-2-hydroxypropyl]-1H-benzimidazol-5-yl}benzonitrile]
20 | 0.394 µM | CC(C)(C)c1ccc2[nH]c([C@@H]3C[C@@H](F)CN3)nc2c1 [Example 131, 5-tert-Butyl-2-[(2S,4R)-4-fluoropyrrolidin-2-yl]-1H-benzimidazole]
21 | 0.562 µM | CC[C@@H](N)c1nc2cc(-c3ccc(C#N)cc3)ccc2[nH]1 [Example 53, 4-{2-[(1R)-1-aminopropyl]-1H-benzimidazol-5-yl}benzonitrile]
22 | 0.0175 µM | CO[C@H](C)[C@H](N)c1nc2cc(-c3ccc(C#N)cc3)ccc2[nH]1 [Example 92, 4-{2-[(1R,2R)-1-Amino-2-methoxypropyl]-1H-benzimidazol-5-yl}benzonitrile]
23 | 0.698 µM | N#Cc1ccc(-c2ccc3[nH]c([C@@H]4C[C@H](F)CN4)nc3c2)cc1 [Example 61, 4-{2-[(2S,4S)-4-fluoropyrrolidin-2-yl]-1H-benzimidazol-5-yl}benzonitrile]
24 | 0.108 µM | CC(C)(C)c1ccc2[nH]c([C@@H]3C[C@H](O)CN3)nc2c1 [Example 22, (3S,5S)-5-(5-tert-Butyl-1H-benzimidazol-2-yl)pyrrolidin-3-ol]
25 | 0.0771 µM | C[C@@H](O)[C@H](N)c1nc2cc(-c3ccc(C#N)cc3)ccc2[nH]1 [Example 40, 4-{2-[(1R,2R)-1-Amino-2-hydroxypropyl]-1H-benzimidazol-5-yl}benzonitrile]
26 | 0.781 µM | CC(C)C[C@@H](N)c1nc2cc(-c3ccc(C#N)cc3)ccc2[nH]1 [Example 47, 4-{2-[(1R)-1-Amino-3-methylbutyl]-1H-benzimidazol-5-yl}benzonitrile]
27 | 1.84 µM | COC(C)(C)C(N)c1nc2cc(-c3ccc(C#N)cc3)ccc2[nH]1 (stereo not shown) [Example 142, 4-[2-(1-Amino-2-methoxy-2-methylpropyl)-1H-benzimidazol-5-yl]benzonitrile]
28 | 3.16 µM | CC(C)(N)c1nc2cc(-c3cc(F)cc(C#N)c3)ccc2[nH]1 [Example 70, 3-[2-(1-Amino-1-methylethyl)-1H-benzimidazol-5-yl]-5-fluorobenzonitrile]
29 | 1.36 µM | CC(C)(N)c1nc2cc(-c3ccccc3C#N)ccc2[nH]1 [Example 74, 2-[2-(1-Amino-1-methylethyl)-1H-benzimidazol-5-yl]benzonitrile]
30 | 1.05 µM | N#Cc1ccc(-c2ccc3[nH]c([C@@H]4C[C@H](O)CN4)nc3c2)cc1 [Example 49, 4-{2-[(2S,4S)-4-Hydroxypyrrolidin-2-yl]-1H-benzimidazol-5-yl}benzonitrile]
31 | 0.326 µM | C[C@@H](O)[C@H](N)c1nc2cc(-c3ccc(C#N)cc3Cl)ccc2[nH]1 [Example 122, 4-{2-[(1R,2R)-1-Amino-2-hydroxypropyl]-1H-benzimidazol-6-yl}-3-chlorobenzonitrile]
32 | 0.203 µM | N#Cc1ccc(-c2ccc3[nH]c([C@@H](N)CC(N)=O)nc3c2)cc1 [Example 45, (3S)-3-Amino-3-[5-(4-cyanophenyl)-1H-benzimidazol-2-yl]propanamide]
33 | 0.827 µM | CC(C)(N)c1nc2cc(-c3cccc(Cl)c3C#N)ccc2[nH]1 [Example 73, 2-[2-(1-Amino-1-methylethyl)-1H-benzimidazol-5-yl]-6-chlorobenzonitrile]
34 | 0.266 µM | CCC(C)(C)c1ccc2[nH]c(C3(N)Cc4ccccc4C3)nc2c1 [Example 33, 2-[5-(2-Methylbutan-2-yl)-1H-benzimidazol-2-yl]-2,3-dihydro-1H-inden-2-amine]

From patent publication US8927587B2, “Chemical compounds” (Pfizer Limited, priority 2012, dated 2015)
